# Source: paper PMC9518264, “Design and synthesis of novel quinazolinone-based derivatives as EGFR inhibitors with antitumor activity” (Journal of Enzyme Inhibition and Medicinal Chemistry, 2022)
# How the values were obtained:
# HCT-116 = experiment: cells; type: cell-based; details: Homo sapiens, HCT-116, read-out: growth inhibition % (GI%)
# SK-MEL-2 = experiment: cells; type: cell-based; details: Homo sapiens, SK-MEL-2, read-out: growth inhibition % (GI%)
# SF-295 = experiment: cells; type: cell-based; details: Homo sapiens, SF-295, read-out: growth inhibition % (GI%)
# UACC-62 = experiment: cells; type: cell-based; details: Homo sapiens, UACC-62, read-out: growth inhibition % (GI%)
# UACC-257 = experiment: cells; type: cell-based; details: Homo sapiens, UACC-257, read-out: growth inhibition % (GI%)
# CCRF-CEM = experiment: cells; type: cell-based; details: Homo sapiens, read-out: growth inhibition % (GI%)
# OVCAR-5 = experiment: cells; type: cell-based; details: Homo sapiens, OVCAR-5, read-out: growth inhibition % (GI%)
# COLO-205 = experiment: cells; type: cell-based; details: Homo sapiens, COLO 205, read-out: growth inhibition % (GI%)
# HOP-62 = experiment: cells; type: cell-based; details: Homo sapiens, HOP-62, read-out: growth inhibition % (GI%)
# HCC-2998 = experiment: cells; type: cell-based; details: Homo sapiens, HCC 2998, read-out: growth inhibition % (GI%)
# SNB-75 = experiment: cells; type: cell-based; details: Homo sapiens, SNB-75, read-out: growth inhibition % (GI%)
# PC-3 = experiment: cells; type: cell-based; details: Homo sapiens, PC-3, read-out: growth inhibition % (GI%)
# SW-620 = experiment: cells; type: cell-based; details: Homo sapiens, SW-620, read-out: growth inhibition % (GI%)
# DU-145 = experiment: cells; type: cell-based; details: Homo sapiens, DU-145, read-out: growth inhibition % (GI%)
# HL-60(TB) = experiment: cells; type: cell-based; details: Homo sapiens, HL-60, read-out: growth inhibition % (GI%)
# MCF7 = experiment: cells; type: cell-based; details: Homo sapiens, MCF7, read-out: growth inhibition % (GI%)
# MOLT-4 = experiment: cells; type: cell-based; details: Homo sapiens, MOLT-4, read-out: growth inhibition % (GI%)
# EKVX = experiment: cells; type: cell-based; details: Homo sapiens, read-out: growth inhibition % (GI%)
# [1] = test system: panel of 60 tumour cell lines; experiment: NCI 60 cell line antiproliferative screening (SRB), whole panel or subpanels (means, ranges, words); type: cell-based, human; details: 10 μM
# HOP-92 = experiment: cells; type: cell-based; details: Homo sapiens, HOP-92, read-out: growth inhibition % (GI%)
# SF-539 = experiment: cells; type: cell-based; details: Homo sapiens, SF-539, read-out: growth inhibition % (GI%)
# HCT-15 = experiment: cells; type: cell-based; details: Homo sapiens, HCT-15, read-out: growth inhibition % (GI%)
# SK-MEL-28 = experiment: cells; type: cell-based; details: Homo sapiens, SK-MEL-28, read-out: growth inhibition % (GI%)
# OVCAR-3 = experiment: NCI 60 cell line antiproliferative screening (SRB), Ovarian cancer; details: Homo sapiens, OVCAR-3, read-out: growth inhibition % (GI%)
# BT-549 = experiment: cells; type: cell-based; details: Homo sapiens, BT-549, read-out: growth inhibition % (GI%)
# MDA-MB-468 = experiment: NCI 60 cell line antiproliferative screening (SRB), Breast cancer; details: Homo sapiens, MDA-MB-468, read-out: growth inhibition % (GI%)
# SNB-19 = experiment: cells; type: cell-based; details: Homo sapiens, SNB-19, read-out: growth inhibition % (GI%)
# NCI-H322M = experiment: cells; type: cell-based; details: Homo sapiens, read-out: growth inhibition % (GI%)
# UO-31 = experiment: cells; type: cell-based; details: Homo sapiens, UO-31, read-out: growth inhibition % (GI%)
# SK-MEL-5 = experiment: cells; type: cell-based; details: Homo sapiens, SK-MEL-5, read-out: growth inhibition % (GI%)
# SN12C = experiment: cells; type: cell-based; details: Homo sapiens, read-out: growth inhibition % (GI%)
# NCI-H226 = experiment: cells; type: cell-based; details: Homo sapiens, NCI-H226, read-out: growth inhibition % (GI%)
# T-47D = experiment: cells; type: cell-based; details: Homo sapiens, T47D, read-out: growth inhibition % (GI%)
# NCI/ADR-RES = experiment: cells; type: cell-based; details: Homo sapiens, read-out: growth inhibition % (GI%)
# ACHN = experiment: cells; type: cell-based; details: Homo sapiens, read-out: growth inhibition % (GI%)
# A498 = experiment: cells; type: cell-based; details: Homo sapiens, A498, read-out: growth inhibition % (GI%)
# OVCAR-4 = experiment: cells; type: cell-based; details: Homo sapiens, OVCAR-4, read-out: growth inhibition % (GI%)
# NCI-H460 = experiment: cells; type: cell-based; details: Homo sapiens, NCI-H460, read-out: growth inhibition % (GI%)
# NCI-H522 = experiment: cells; type: cell-based; details: Homo sapiens, NCI-H522, read-out: growth inhibition % (GI%)
# SR = experiment: cells; type: cell-based; details: Homo sapiens, read-out: growth inhibition % (GI%)
# MALME-3M = experiment: cells; type: cell-based; details: Homo sapiens, Malme-3M, read-out: growth inhibition % (GI%)
# A549/ATCC = experiment: cells; type: cell-based; details: Homo sapiens, A549, read-out: growth inhibition % (GI%)
# U251 = experiment: cells; type: cell-based; details: Homo sapiens, U-251, read-out: growth inhibition % (GI%)
# TK-10 = experiment: cells; type: cell-based; details: Homo sapiens, TK-10, read-out: growth inhibition % (GI%)
# RPMI-8226 = experiment: cells; type: cell-based; details: Homo sapiens, RPMI-8226, read-out: growth inhibition % (GI%)
# HT29 = experiment: cells; type: cell-based; details: Homo sapiens, HT-29, read-out: growth inhibition % (GI%)
# 786-0 = experiment: cells; type: cell-based; details: Homo sapiens, 786-0, read-out: growth inhibition % (GI%)
smiles,measurement,setting,value
"O=C(CSc1nc2ccccc2c(=O)n1-c1ccccc1)NN=Cc1ccc(Oc2ccc(Cl)cc2)cc1 [6a, N'-(4–(4-chlorophenoxy)benzylidene)-2-((4-oxo-3-phenyl-3,4-dihydroquinazolin-2-yl)thio)acetohydrazide]",inhibition at 10 µM,HCT-116,94.4%
same,inhibition at 10 µM,SK-MEL-2,13.1%
same,inhibition at 10 µM,SF-295,16.2%
same,inhibition at 10 µM,UACC-62,33.4%
same,inhibition at 10 µM,UACC-257,< 15%
same,inhibition at 10 µM,CCRF-CEM,49.6%
same,inhibition at 10 µM,OVCAR-5,18.6%
same,inhibition at 10 µM,COLO-205,50.8%
same,inhibition at 10 µM,HOP-62,40.9%
same,inhibition at 10 µM,HCC-2998,< 15%
same,inhibition at 10 µM,SNB-75,39.9%
same,inhibition at 10 µM,PC-3,41.3%
same,inhibition at 10 µM,SW-620,56.9%
same,inhibition at 10 µM,DU-145,61.6%
same,inhibition at 10 µM,HL-60(TB),< 15%
same,inhibition at 10 µM,MCF7,35.5%
same,inhibition at 10 µM,MOLT-4,41.3%
same,inhibition at 10 µM,EKVX,41%
same,GI% range over a subset of cell lines,[1]; subset of cell lines whose number is stated in the sentence,67.86% to 30.09
same,inhibition at 10 µM,"[1]; Homo sapiens, 60 cell, mean over the cell line panel, read-out: Mean growth inhibition % (mean GI%)",37.3%
same,inhibition at 10 µM,HOP-92,33.3%
same,inhibition at 10 µM,SF-539,31.5%
same,inhibition at 10 µM,HCT-15,39.2%
same,inhibition at 10 µM,SK-MEL-28,37.6%
same,inhibition at 10 µM,OVCAR-3,< 15%
same,inhibition at 10 µM,BT-549,30.1%
same,inhibition at 10 µM,MDA-MB-468,28.4%
same,inhibition at 10 µM,SNB-19,66.8%
same,inhibition at 10 µM,NCI-H322M,15.5%
same,inhibition at 10 µM,UO-31,18.8%
same,inhibition at 10 µM,SK-MEL-5,28.8%
same,inhibition at 10 µM,SN12C,73.1%
same,inhibition at 10 µM,NCI-H226,27.9%
same,inhibition at 10 µM,T-47D,17.5%
same,inhibition at 10 µM,NCI/ADR-RES,47.3%
same,inhibition at 10 µM,ACHN,25.5%
same,inhibition at 10 µM,A498,34.3%
same,inhibition at 10 µM,OVCAR-4,26.2%
same,inhibition at 10 µM,NCI-H460,67.9%
same,inhibition at 10 µM,NCI-H522,50.4%
same,inhibition at 10 µM,SR,29.7%
same,inhibition at 10 µM,MALME-3M,48.7%
same,inhibition at 10 µM,A549/ATCC,58.3%
same,inhibition at 10 µM,U251,84.8%
same,inhibition at 10 µM,TK-10,< 15%
same,inhibition at 10 µM,RPMI-8226,26.8%
same,inhibition at 10 µM,HT29,40.9%
same,inhibition at 10 µM,786-0,46.8%
